Laboratory results published in PMC12062780, “Validation of ion mobility spectrometry ‐ mass spectrometry as a screening tool to identify type II kinase inhibitors of FGFR1 kinase” (Rapid Communications in Mass Spectrometry, 2021).

Assays:
FGFR1 [1] = biological target: T1, FGFR1 (Homo sapiens, UniProt P11362, C488A/C584S); assay: ESI-CIU-IMS-MS collision-induced unfolding of FGFR1 after incubation with inhibitor; details: for IMS-MS Drift Time of unfolded conformer / Intensity vs base peak (5.5 ms) of the unfolded conformer at ca 7.6 ms: 11+ FGFR1 ions
T1 construct: made in house; host or cells: E. coli
Procedure: FGFR1 (2 μM) and inhibitors (8 μM) were incubated separately in ammonium acetate (100 mM) for 1 h at room temperature prior to analysis. A Synapt G2‐S travelling‐wave ion mobility spectrometry ‐ mass spectrometer equipped with a nano‐ESI source was used for all sample analyses (Waters Corp., Manchester, UK). Samples were analysed by nano‐ESI from in‐house fabricated gold–palladium‐coated borosilicate capillaries assembled using a P‐97 micropipette puller (Sutter Instrument Co., Novato, CA, USA) and a sputter coater (Polaron SC7620; Quorum Technologies Ltd, Kent, UK). The following instrument parameters were set: capillary voltage 1.8 kV, cone voltage 30 V, source temperature 100°C, backing pressure 9.3 mbar, travelling‐wave height 40 V, travelling‐wave speed 500 m/s, IMS He gas flow rate 150 mL/min, IMS N2 gas flow rate 50 mL/min. For the collision‐induced unfolding (CIU) experiments, the trap voltage was increased to 21 V or 24 V and the transfer voltage was maintained at 4 V. Data were processed by use of the MassLynx (version 4.1) and Driftscope software supplied with the mass spectrometer. The m/z scale was calibrated using a separate introduction of aqueous CsI at 1 mg/mL.
To see if type I and type II inhibitors affect the conformational profile of FGFR1, the protein was incubated with each inhibitor separately prior to nano‐ESI‐CIU‐IMS‐MS analysis. All charge‐state ions arising from the FGFR1–ligand complexes (selected individually by the initial quadrupole analyser) were subjected to CIU‐induced unfolding in the trap prior to IMS separation.
During these analyses, the trap energy was increased and protein unfolding was monitored by examining the drift times of the protein ions during their transit through the IMS cell.

[2] = biological target: T2, Human FGFR1 consisting of residues 457–765 with C488A and C584S mutations (Homo sapiens, UniProt P11362, C488A/C584S); assay: Isothermal titration calorimetry (ITC) of inhibitor binding to FGFR1; details: 25°C, type I TKIs
T2 construct: made in house; host or cells: E. coli
Procedure: ITC was carried out using a Microcal ITC200 instrument (GE Healthcare Biosciences, Amersham, UK). FGFR1 was dialysed against the experimental buffer (20 mM Tris/HCl, 100 mM NaCl and 5 mM DTT pH 7.8) prior to titration with inhibitor. Inhibitors were dissolved in DMSO, and experimental buffer DMSO concentration was matched. Titrations were performed at 25°C with 2 μL injections of inhibitor (200 μM) every 180 s into the cell containing FGFR1 (20 μM) with stirring at 1000 rpm. Results were analysed in Origin (OriginLab, Northampton, MA, USA) and fitted using a one‐site binding model.

FGFR1 [3] = system: FGFR1; set-up: method as in PMID 22141913; details: cited from earlier work
FGFR1 [4] = biological target: T1, FGFR1; assay: Microscale thermophoresis (MST), label-free; assay type: binding; details: type I TKI; MST per b30 and Figure S5 (Figure 2 legend says ITC), 25°C
Procedure: Thermophoresis was used to measure the binding interactions between FGFR1 and compounds. The MST measurements were performed using a Monolith NT.LabelFree instrument (NanoTemper Technologies GmbH, Munich, Germany). In this instrument, an infrared laser beam and light (fluorescence excitation and emission) was coupled with a dichroic mirror and focused on the sample. When the IR‐laser was on, it heated a small area of the sample and created a temperature gradient. The total fluorescence of the focused area was measured when the IR‐laser was off (Fcold) and on (Fhot). The capillaries were filled with the sample (less than 5 μL was required for each capillary). The following MST settings were used: LED power 70%, MST laser power 40%, fluorescence before (5 s), MST on (30 s), fluorescence after (3 s). […] After the capillary scan thermophoresis FGFR1 was measured for 30 s in the presence of the varied concentrations of compound. Fnorm = Fhot/Fcold was analysed and plotted by NT Analysis software (NanoTemper Technologies GmbH). Fraction bound = (Fnorm – Fnorm [unbound])/(Fnorm (bound) – Fnorm (unbound)) was calculated and the binding data were fitted to a Hill function (n = 1) using the instrument analysis software. To eliminate artifacts caused by labelling or modifying proteins, the fluorescence of tryptophan residues was used to monitor the local protein concentration. […]

FGFR1 kinase domain = biological target: T3, FGFR1 kinase domain (Homo sapiens, UniProt P11362, C488A/C584S); assay: X-ray crystallography of FGFR1–ligand complexes (DFG loop status); assay type: binding; details: co-crystal structure
T3 construct: Human FGFR1 consisting of residues 457–765 with C488A and C584S mutations; made in house; host or cells: E. coli
Procedure: Data were integrated and scaled using XDS[23] and SCALA[24] as implemented within the autoPROC software package.[25] Data reduction and structure solution by molecular replacement were carried out using programs from the CCP4 software suite.[26] […] The protein–inhibitor complex model was refined using Buster,[28] interspersed with rounds of manual model building in Coot.[29]

FGFR1 [5] = details: read-out: in vitro IC50 against FGFR1; cited from earlier work

T1 sequence (P11362 with tags, fused parts or gaps C488A/C584S): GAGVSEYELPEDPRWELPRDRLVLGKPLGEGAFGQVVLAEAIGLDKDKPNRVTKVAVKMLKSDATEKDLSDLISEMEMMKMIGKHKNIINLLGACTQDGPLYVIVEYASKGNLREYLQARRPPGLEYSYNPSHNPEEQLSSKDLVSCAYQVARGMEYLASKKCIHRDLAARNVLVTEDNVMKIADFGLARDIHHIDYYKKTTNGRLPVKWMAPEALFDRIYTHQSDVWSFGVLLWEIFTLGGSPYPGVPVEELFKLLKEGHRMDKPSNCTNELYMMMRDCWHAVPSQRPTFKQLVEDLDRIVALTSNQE
T3 sequence (P11362 457-765 C488A/C584S): as the sequence (P11362 with tags, fused parts or gaps C488A/C584S) above, with G1L counted along it
T2 sequence (P11362 with tags, fused parts or gaps C488A/C584S): as the sequence (P11362 with tags, fused parts or gaps C488A/C584S) above

CC(C)Oc1cc(Nc2ccnc(NCc3cc(C4CC4)no3)n2)n[nH]1 [Compound B]
IMS-MS Drift Time of unfolded conformer (FGFR1 [1]; 21 V Trap): 7.5 ms
Intensity vs base peak (5.5 ms) of the unfolded conformer at ca 7.6 ms (FGFR1 [1]; 21 V Trap): 29.2%
IMS-MS Drift Time of unfolded conformer (FGFR1 [1]; 24 V Trap): 7.7 ms
Intensity vs base peak (5.5 ms) of the unfolded conformer at ca 7.6 ms (FGFR1 [1]; 24 V Trap): 50.8%

Cc1cc(Nc2nc(NCCc3cccnc3)ncc2Br)n[nH]1 [Compound C]
IMS-MS Drift Time of unfolded conformer (FGFR1 [1]; 21 V Trap): 7.5 ms
Intensity vs base peak (5.5 ms) of the unfolded conformer at ca 7.6 ms (FGFR1 [1]; 21 V Trap): 25.0%
IMS-MS Drift Time of unfolded conformer (FGFR1 [1]; 24 V Trap): 7.5 ms
Intensity vs base peak (5.5 ms) of the unfolded conformer at ca 7.6 ms (FGFR1 [1]; 24 V Trap): 40.7%

CCCc1cc(Nc2nc(NCc3ccccn3)ncc2Br)n[nH]1 [Compound D]
IMS-MS Drift Time of unfolded conformer (FGFR1 [1]; 21 V Trap): 7.5 ms
Intensity vs base peak (5.5 ms) of the unfolded conformer at ca 7.6 ms (FGFR1 [1]; 21 V Trap): 27.5%
IMS-MS Drift Time of unfolded conformer (FGFR1 [1]; 24 V Trap): 7.7 ms
Intensity vs base peak (5.5 ms) of the unfolded conformer at ca 7.6 ms (FGFR1 [1]; 24 V Trap): 43.2%
Kd for FGFR1 [2]: 36 nM

CNC(=O)c1ccccc1Nc1cc(Nc2cn(C)nc2C)ncc1C(F)(F)F [Compound E]
IMS-MS Drift Time of unfolded conformer (FGFR1 [1]; 21 V Trap): 7.5 ms
Intensity vs base peak (5.5 ms) of the unfolded conformer at ca 7.6 ms (FGFR1 [1]; 21 V Trap): 24.2%
IMS-MS Drift Time of unfolded conformer (FGFR1 [1]; 24 V Trap): 7.5 ms
Intensity vs base peak (5.5 ms) of the unfolded conformer at ca 7.6 ms (FGFR1 [1]; 24 V Trap): 45.8%

COc1ccc(C(=O)Nc2cc(-c3ccccc3)[nH]n2)cc1OC [JK-P3]
cellular activity against FGFR1 (FGFR1 [3]): cellular activity against FGFR1
Kd (FGFR1 [4]): 25000 nM
IMS-MS Drift Time of unfolded conformer (FGFR1 [1]; 21 V Trap): 7.5 ms
Intensity vs base peak (5.5 ms) of the unfolded conformer at ca 7.6 ms (FGFR1 [1]; 21 V Trap): 30.8%
IMS-MS Drift Time of unfolded conformer (FGFR1 [1]; 24 V Trap): 7.5 ms
Intensity vs base peak (5.5 ms) of the unfolded conformer at ca 7.6 ms (FGFR1 [1]; 24 V Trap): 45.8%
FGFR1 kinase conformation bound or induced (DFG motif orientation) (FGFR1 kinase domain): DFG in

CN1CCN(c2ccc(NC(=O)c3n[nH]c4ccccc34)cc2)CC1 [JK-P5]
cellular activity against FGFR1 (FGFR1 [3]): cellular activity against FGFR1
Kd (FGFR1 [4]): 145 nM
IMS-MS Drift Time of unfolded conformer (FGFR1 [1]; 21 V Trap): 7.5 ms
Intensity vs base peak (5.5 ms) of the unfolded conformer at ca 7.6 ms (FGFR1 [1]; 21 V Trap): 22.1%
IMS-MS Drift Time of unfolded conformer (FGFR1 [1]; 24 V Trap): 7.5 ms
Intensity vs base peak (5.5 ms) of the unfolded conformer at ca 7.6 ms (FGFR1 [1]; 24 V Trap): 32.2%
FGFR1 kinase conformation bound or induced (DFG motif orientation) (FGFR1 kinase domain): DFG in

Cc1ccc(F)c(NC(=O)Nc2ccc(-c3cccc4[nH]nc(N)c34)cc2)c1 [Linifanib]
IMS-MS Drift Time of unfolded conformer (FGFR1 [1]; 21 V Trap): 7.5 ms
Intensity vs base peak (5.5 ms) of the unfolded conformer at ca 7.6 ms (FGFR1 [1]; 21 V Trap): 55.0%
IMS-MS Drift Time of unfolded conformer (FGFR1 [1]; 24 V Trap): 7.7 ms
Intensity vs base peak (5.5 ms) of the unfolded conformer at ca 7.6 ms (FGFR1 [1]; 24 V Trap): 92.8%
FGFR1 kinase conformation bound or induced (DFG motif orientation) (FGFR1 kinase domain): DFG out

Cc1ccc(C(=O)Nc2ccc(CN3CCN(C)CC3)c(C(F)(F)F)c2)cc1C#Cc1cnc2cccnn12 [Ponatinib]
IMS-MS Drift Time of unfolded conformer (FGFR1 [1]; 21 V Trap): 7.9 ms
Intensity vs base peak (5.5 ms) of the unfolded conformer at ca 7.6 ms (FGFR1 [1]; 21 V Trap): 46.7%
IMS-MS Drift Time of unfolded conformer (FGFR1 [1]; 24 V Trap): 7.7 ms
Intensity vs base peak (5.5 ms) of the unfolded conformer at ca 7.6 ms (FGFR1 [1]; 24 V Trap): 71.2%

CNC(=O)c1cc(Oc2ccc(NC(=O)Nc3ccc(Cl)c(C(F)(F)F)c3)cc2)ccn1 [Sorafenib]
IMS-MS Drift Time of unfolded conformer (FGFR1 [1]; 21 V Trap): 7.5 ms
IMS-MS Drift Time of unfolded conformer (FGFR1 [1]; 24 V Trap): 7.5 ms
Intensity vs base peak (5.5 ms) of the unfolded conformer at ca 7.6 ms (FGFR1 [1]; 24 V Trap): 66.1%
Inhibitor class assigned from CIU profile (FGFR1 [1]; ESI-IMS-MS CIU profile): type II
IC50 (FGFR1 [5]): 580 nM
